This passage reports IC50 results from article PMC7592376, “Design and synthesis of multi-target directed 1,2,3-triazole-dimethylaminoacryloyl-chromenone derivatives with potential use in Alzheimer's disease” (BMC Chemistry, 2020).

The target in one test is T1, AChE (Electrophorus electricus, UniProt O42275).
T1 construct: purchased Aldrich
Briefly: biochemical. The conditions noted are these: mean ± SD, three independent experiments; read-out: AChEI IC50. The method, then:
(§1) All enzymes and reagents required for the assay were obtained from Aldrich. […] Each well contained 50 µL potassium phosphate buffer (KH2PO4/ K2HPO4, 0.1 M, pH 8), 25 µL sample solution, and 25 µL enzyme (final concentration 0.22 U/mL in buffer). Control experiments were also performed under the same conditions without enzyme. After incubation at room temperature for 15 min, 125 µL DTNB (3 mM in buffer) was added and the characterization of enzymatic reaction was spectrometrically performed at 405 nm followed by the addition of substrate (ATCI 3 mM in water) after 5–10 min. The IC50 values were determined graphically from inhibition curves (log inhibitor concentration vs. percent of inhibition). Also, the same method was used for the BuChE inhibition assay.

Another test concerns the target T2, BuChE (Homo sapiens, UniProt P06276).
T2 construct: purchased Aldrich
Put plainly: biochemical. The conditions noted are these: mean ± SD, three independent experiments; read-out: BuChEI IC50. The method, then: as §1

As usually defined, the IC50 is the concentration needed to halve the response being measured.

Some results are limits rather than exact numbers.

T2 sequence (P06276 29-602): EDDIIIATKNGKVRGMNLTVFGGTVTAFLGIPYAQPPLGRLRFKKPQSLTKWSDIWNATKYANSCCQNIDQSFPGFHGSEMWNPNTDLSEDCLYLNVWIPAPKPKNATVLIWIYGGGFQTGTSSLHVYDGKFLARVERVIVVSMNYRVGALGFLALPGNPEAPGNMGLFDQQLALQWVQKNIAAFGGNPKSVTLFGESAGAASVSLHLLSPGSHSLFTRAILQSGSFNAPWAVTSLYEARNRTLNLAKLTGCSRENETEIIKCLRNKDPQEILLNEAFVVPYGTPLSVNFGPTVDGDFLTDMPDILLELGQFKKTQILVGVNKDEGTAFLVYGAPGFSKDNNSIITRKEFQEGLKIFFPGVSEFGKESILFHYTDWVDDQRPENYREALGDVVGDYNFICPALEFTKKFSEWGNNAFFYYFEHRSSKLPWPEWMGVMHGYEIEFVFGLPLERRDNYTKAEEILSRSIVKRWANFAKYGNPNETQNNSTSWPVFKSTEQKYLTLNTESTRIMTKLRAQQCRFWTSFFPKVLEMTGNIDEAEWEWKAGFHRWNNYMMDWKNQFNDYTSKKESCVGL
T1 sequence (O42275 24-633): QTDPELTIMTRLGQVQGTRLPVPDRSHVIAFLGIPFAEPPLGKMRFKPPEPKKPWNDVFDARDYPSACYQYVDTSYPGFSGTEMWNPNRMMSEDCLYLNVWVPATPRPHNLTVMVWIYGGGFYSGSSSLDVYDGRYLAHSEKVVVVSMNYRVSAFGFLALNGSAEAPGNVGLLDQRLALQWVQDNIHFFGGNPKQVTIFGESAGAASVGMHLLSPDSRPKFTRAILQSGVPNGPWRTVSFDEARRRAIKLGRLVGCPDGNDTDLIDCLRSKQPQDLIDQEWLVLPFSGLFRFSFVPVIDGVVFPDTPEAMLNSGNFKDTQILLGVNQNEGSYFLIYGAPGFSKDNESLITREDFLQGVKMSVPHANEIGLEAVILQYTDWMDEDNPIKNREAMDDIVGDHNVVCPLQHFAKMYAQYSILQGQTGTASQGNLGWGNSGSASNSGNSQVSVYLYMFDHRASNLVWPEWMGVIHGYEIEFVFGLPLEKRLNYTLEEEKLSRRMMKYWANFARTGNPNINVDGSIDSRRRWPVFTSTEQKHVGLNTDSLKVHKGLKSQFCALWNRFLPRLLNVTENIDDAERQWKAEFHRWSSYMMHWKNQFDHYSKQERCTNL

Consider `CN(C)/C=C/C(=O)c1cc2ccc(OCc3cn(Cc4ccccc4)nn3)cc2oc1=O` [Compound 10a, (E)-7-((1-Benzyl-1H-1,2,3-triazol-4-yl)methoxy)-3-(3-(dimethylamino)acryloyl)-2H-chromen-2-one], for which the IC50 on AChE is over 100 µM; on BuChE, 34.41 ± 0.23 µM.
For `Cc1ccccc1Cn1cc(COc2ccc3cc(C(=O)/C=C/N(C)C)c(=O)oc3c2)nn1` [Compound 10b, (E)-3-(3-(Dimethylamino)acryloyl)-7-((1-(2-methylbenzyl)-1H-1,2,3-triazol-4-yl)methoxy)-2H-chromen-2-one], the results for the IC50 at AChE and on BuChE were over 100 µM and 35.73 ± 0.21 µM, respectively.
Taken in the same sequence, the figures for `Cc1ccc(Cn2cc(COc3ccc4cc(C(=O)/C=C/N(C)C)c(=O)oc4c3)nn2)cc1` [Compound 10c, (E)-3-(3-(Dimethylamino)acryloyl)-7-((1-(4-methylbenzyl)-1H-1,2,3-triazol-4-yl)methoxy)-2H-chromen-2-one] were over 100 µM and over 100 µM.
The corresponding values for `COc1cccc(Cn2cc(COc3ccc4cc(C(=O)/C=C/N(C)C)c(=O)oc4c3)nn2)c1` [Compound 10d, (E)-3-(3-(Dimethylamino)acryloyl)-7-((1-(3-methoxybenzyl)-1H-1,2,3-triazol-4-yl)methoxy)-2H-chromen-2-one] are over 100 µM and 23.44 ± 0.07 µM.
Turning to `CN(C)/C=C/C(=O)c1cc2ccc(OCc3cn(Cc4ccccc4F)nn3)cc2oc1=O` [Compound 10e, (E)-3-(3-(Dimethylamino)acryloyl)-7-((1-(2-fluorobenzyl)-1H-1,2,3-triazol-4-yl)methoxy)-2H-chromen-2-one], the IC50 at AChE and at BuChE was over 100 µM each time.
With `CN(C)/C=C/C(=O)c1cc2ccc(OCc3cn(Cc4cccc(F)c4)nn3)cc2oc1=O` [Compound 10f, (E)-3-(3-(Dimethylamino)acryloyl)-7-((1-(3-fluorobenzyl)-1H-1,2,3-triazol-4-yl)methoxy)-2H-chromen-2-one], the IC50 on AChE was over 100 µM; at BuChE, 59.58 ± 0.05 µM.
The corresponding values for `CN(C)/C=C/C(=O)c1cc2ccc(OCc3cn(Cc4ccc(F)cc4)nn3)cc2oc1=O` [Compound 10g, (E)-3-(3-(Dimethylamino)acryloyl)-7-((1-(4-fluorobenzyl)-1H-1,2,3-triazol-4-yl)methoxy)-2H-chromen-2-one] are over 100 µM and over 100 µM.
Taken in the same sequence, the figures for `CN(C)/C=C/C(=O)c1cc2ccc(OCc3cn(Cc4ccccc4Cl)nn3)cc2oc1=O` [Compound 10i, (E)-7-((1-(2-Chlorobenzyl)-1H-1,2,3-triazol-4-yl)methoxy)-3-(3-(dimethylamino)acryloyl)-2H-chromen-2-one] were over 100 µM and over 100 µM.
Take `CN(C)/C=C/C(=O)c1cc2ccc(OCc3cn(Cc4ccc(Cl)cc4)nn3)cc2oc1=O` [Compound 10j, (E)-7-((1-(4-Chlorobenzyl)-1H-1,2,3-triazol-4-yl)methoxy)-3-(3-(dimethylamino)acryloyl)-2H-chromen-2-one]: the IC50 on AChE and at BuChE was over 100 µM in each case.
As to `CN(C)/C=C/C(=O)c1cc2ccc(OCc3cn(Cc4ccccc4Br)nn3)cc2oc1=O` [Compound 10k, (E)-7-((1-(2-Bromobenzyl)-1H-1,2,3-triazol-4-yl)methoxy)-3-(3-(dimethylamino)acryloyl)-2H-chromen-2-one], the IC50 at AChE and on BuChE was over 100 µM each time.
As for `CN(C)/C=C/C(=O)c1cc2ccc(OCc3cn(Cc4cccc(Br)c4)nn3)cc2oc1=O` [Compound 10l, (E)-7-((1-(3-Bromobenzyl)-1H-1,2,3-triazol-4-yl)methoxy)-3-(3-(dimethylamino)acryloyl)-2H-chromen-2-one], the figures for the IC50 on AChE and at BuChE were over 100 µM and 65.96 ± 0.004 µM, respectively.
The corresponding values for `CN(C)/C=C/C(=O)c1cc2ccc(OCc3cn(Cc4ccc(Br)cc4)nn3)cc2oc1=O` [Compound 10m, (E)-7-((1-(4-Bromobenzyl)-1H-1,2,3-triazol-4-yl)methoxy)-3-(3-(dimethylamino)acryloyl)-2H-chromen-2-one] are over 100 µM and over 100 µM.
